Measurements taken from ChEMBL document CHEMBL1201862, “PubChem BioAssay data set” (2004).
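Results reflect a 48-hour exposure of cells in 96-well plates to compound at five concentrations. GI50: concentration for 50% inhibition of growth.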 The source made the active and inactive calls. No stated cut-off is given here; in the data, active = GI50 up to about 1.1 µM and inactive = higher.

What was measured:
Assay in all cases: DTP human tumour cell line panel, 48 h
HT-29 = system: HT-29
UACC-62 = system: UACC-62
SF-268 = system: SF-268
IGROV-1 = system: IGROV-1
HOP-92 = system: HOP-92
HCT-116 = system: HCT-116
SN12C = system: SN12C
SF-295 = system: SF-295
NCI-H460 = system: NCI-H460
COLO 205 = system: COLO 205
SK-MEL-2 = system: SK-MEL-2
MCF7 = system: MCF7
CAKI-1 = system: CAKI-1
UO-31 = system: UO-31
SNB-19 = system: SNB-19
LOX IMVI = system: LOX IMVI
K562 = system: K562
RPMI-8226 = system: RPMI-8226
SK-MEL-5 = system: SK-MEL-5
RXF 393 = system: RXF 393

Measured: GI50

CCCCN1CN2C(=O)C(C(=O)OCC)C(=O)c3sc4nc(SC)nc1c4c32 (stereo not given)
inactive: HT-29 19.8 µM | UACC-62 17.7 µM | SF-268 19.9 µM | IGROV-1 18.9 µM | HOP-92 14.9 µM | HCT-116 15.9 µM | SN12C 19.7 µM | SF-295 16.6 µM | NCI-H460 19.5 µM | COLO 205 18.7 µM | SK-MEL-2 19.8 µM | MCF7 21 µM | CAKI-1 17.3 µM | UO-31 21.1 µM | SNB-19 19 µM | LOX IMVI 20.5 µM | K562 35.5 µM | RPMI-8226 21.1 µM | SK-MEL-5 12.3 µM | RXF 393 20.5 µM

O=NN(CCCl)C(=O)N[C@H]1CC[C@@H](O)CC1
inactive: HT-29 60.3 µM | UACC-62 13 µM | SF-268 13.6 µM | IGROV-1 68.4 µM | HOP-92 8.43 µM | HCT-116 34 µM | SN12C 36.6 µM | SF-295 24 µM | NCI-H460 28.3 µM | COLO 205 24.4 µM | SK-MEL-2 > 100 µM | MCF7 31.6 µM | CAKI-1 27.5 µM | UO-31 72.4 µM | SNB-19 51.2 µM | LOX IMVI 26.1 µM | K562 23.6 µM | RPMI-8226 14 µM | SK-MEL-5 52.4 µM | RXF 393 23.9 µM

CC(C)NC(=O)OCc1c(CO)c2c(n1C)-c1ccccc1CC2
inactive: HT-29 24.5 µM | UACC-62 18.3 µM | SF-268 36.1 µM | IGROV-1 27.5 µM | HOP-92 18.2 µM | HCT-116 17.2 µM | SN12C 24.3 µM | SF-295 86.9 µM | NCI-H460 25.5 µM | COLO 205 21 µM | SK-MEL-2 37.1 µM | MCF7 37.6 µM | CAKI-1 15.8 µM | UO-31 23.7 µM | SNB-19 42.2 µM | LOX IMVI 25.4 µM | K562 15.2 µM | RPMI-8226 17.7 µM | SK-MEL-5 27.2 µM | RXF 393 23.5 µM

Cc1ccc(C2COc3cc(O)c(O)cc3C2)cc1 (stereo not given)
inactive: HT-29 29.7 µM | UACC-62 18.5 µM | SF-268 13.2 µM | IGROV-1 14.6 µM | HOP-92 14.4 µM | HCT-116 12.4 µM | SN12C 20.7 µM | SF-295 32.6 µM | NCI-H460 55.3 µM | COLO 205 12.5 µM | SK-MEL-2 19.2 µM | MCF7 25.9 µM | CAKI-1 15.9 µM | UO-31 30 µM | SNB-19 39.4 µM | LOX IMVI 12.1 µM | K562 7.28 µM | RPMI-8226 7.11 µM | SK-MEL-5 18.9 µM | RXF 393 11.3 µM

CCN1CCCC(NCc2c3ccccc3c(CNC3CCCN(CC)C3)c3ccccc23)C1 (stereo not given)
inactive: HT-29 2.6 µM | UACC-62 12.9 µM | SF-268 7.8 µM | IGROV-1 16.2 µM | HOP-92 11.1 µM | HCT-116 4.5 µM | SN12C 8.91 µM | SF-295 4.67 µM | NCI-H460 3.65 µM | COLO 205 1.99 µM | SK-MEL-2 5.16 µM | MCF7 2.86 µM | CAKI-1 16.1 µM | UO-31 24.8 µM | SNB-19 11.1 µM | LOX IMVI 6.37 µM | K562 7.85 µM | RPMI-8226 10.2 µM | SK-MEL-5 14.1 µM | RXF 393 3.48 µM

CCCCS(=N)(=O)CC[C@H](N)C(=O)O (stereo not given in full) [BUTHIONINE SULFOXIME]
inactive: HT-29 > 5000 µM | UACC-62 > 5000 µM | SF-268 4260 µM | IGROV-1 2110 µM | HOP-92 171 µM | HCT-116 > 5000 µM | SN12C > 5000 µM | SF-295 > 5000 µM | NCI-H460 4730 µM | COLO 205 > 5000 µM | SK-MEL-2 > 5000 µM | MCF7 > 4190 µM | CAKI-1 3400 µM | UO-31 2480 µM | SNB-19 > 5000 µM | LOX IMVI 237 µM | K562 > 5000 µM | RPMI-8226 2460 µM | SK-MEL-5 > 5000 µM | RXF 393 > 5000 µM

CCCCCCCCCCCCCCCCSCC(COC)COP(=O)([O-])OCC[N+](C)(C)C (stereo not given) [ILMOFOSINE]
inactive: HT-29 3.09 µM | UACC-62 4.92 µM | SF-268 7.57 µM | IGROV-1 1.85 µM | HOP-92 2.26 µM | HCT-116 6.76 µM | SN12C 3.24 µM | SF-295 2.49 µM | NCI-H460 2.5 µM | COLO 205 1.97 µM | SK-MEL-2 15.5 µM | MCF7 13.2 µM | CAKI-1 3.52 µM | UO-31 7.69 µM | SNB-19 4.3 µM | LOX IMVI 5.41 µM | K562 13.6 µM | RPMI-8226 2.49 µM | SK-MEL-5 12.7 µM | RXF 393 3.52 µM
